Measured values published in US20230346853A1, “Probiotic Lyophilizate Reactivation Composition for Improving Intestinal Survivability and Adhesion of Probiotics” (COSMAX NBT, INC., priority 2021, published 2023).
Read-outs that look alike come from different tables or passages of the source.

Experiments:
Format in all cases: cell-based
[1] = test system: Lactobacillus plantarum Lp-115; assay: Bacterial adhesion to human enterocyte-like Caco-2/TC-7 cell line, lyophilized Lp-115; conditions: 0.03 M; L-lysine compared to the freeze-dried form, proline compared to L-lysine-reactivated
Text: (§1) An examination was made to see whether the effect of reactivating lyophilized probiotics is applicable to various strains in this experimental example. In this regard, lyophilized Bifidobacterium longum Bl-05 (Dupont; hereinafter referred to as “Bl-05”), Lactobacillus plantarum Lp-115 (Dupont; hereinafter referred to as “Lp-115”), Lactobacillus casei Lc-11 (Dupont; hereinafter referred to as “Lc-11”), and 7-strain mixture (400B) (Dupont; hereinafter referred to as “MIX”) were reactivated with L-lysine and then assayed for their ability to adhere to the human enterocyte-like Caco-2/TC-7 cell line.
(§2) Lyophilizates of the three strains and the 7-strain mix were adjusted to 2×10^8 CFU/g and mixed with 0.03 M L-lysine or 0.03 M proline. The pellets were washed three time with 1× PBS and resuspended in 10 ml MEM cell culture media supplemented with 20% FBS, 2 mM glutamine, and 1% non-essential amino acids. A bacterial adhesion assay was performed according to the method of Botes et al. (Arch. Microbiol, 190 (2008), pp. 573-584) with some modifications. […] To quantify the number of bacteria attached to Caco-2/TC-7 cells, the samples were serially diluted, incubated on MRS agar plates for 48 hours (37° C.), and then counted to measure relative adhesion ratio (counts of attached bacteria in test groups to counts of attached bacteria in the control). […]

[2] = test system: Lactobacillus plantarum HAC03; assay: Zeta potential of lyophilized probiotics mixed with single ingredients (screening); conditions: 0.1 M ingredient, rehydrated 1 min, pH 2.5
Procedure: In this experimental example, Lactobacillus plantarum HAC03 (accession number: KCTC13242BP, the Korean Research Institute of Bioscience and Biotechnology) (hereinafter referred to as “HAC03”), which was described in Korean Patent Application No. 10-2017-0051574, was used as a probiotic strain.
Afterwards, 2 mL of pH 2.5 distilled water was added to each sample, the pH was re-adjusted using HCl 0.1 N, and 800 μl of the calibrated sample was loaded in DTS1080 cuvettes. The electrophoretic mobility was measured by the Zetaizer Nano ZEN 3600 (Malvern Panalytica, UK) after 2 minutes of equilibration and the Smoluchowski equation was used to convert the data into zetapotential values.
In this experiment, zeta potentials were measured at a pH of 2.5 in consideration of the highly acidic stomach environment, which is one of the initial hurdles that drastically reduce the survivability of the bacteria.

[3] = test system: Lactobacillus plantarum HAC03; assay: in vitro Simulated Stomach Duodenum Passage (SSDP) probiotic survivability, lyophilized HAC03; conditions: for viability at 100000 µM: Lactiplantibacillus plantarum
Procedure: The HAC03 strain was mixed with each of the single compositions and 1 mL of distilled water for 1 min. The compositions were formulated to have a final concentration of 0.1 M when dissolved in 1 ml of distilled water. Thereafter, 9 mL of distilled water adjusted to have a pH of 2.5 was added to each mixture. The pH was readjusted back to 2.5 in case of an increased pH due to the nature of some of the single ingredients (in order to not affect the survival of the probiotics). After adjusting the pH to 2.5, the tubes were incubated at 37° C. for 1 hour to apply the low-pH gastric stress condition. […] During the gastrointestinal tract assay, the samples were taken immediately, 1 hour, and […] after the incubation (t=0, 1, and 2). The probiotic survivability of each sample after gastric stress and bile stress was calculated by counting viable colonies.

[4] = test system: Lactobacillus casei Lc-11; assay: Bacterial adhesion to human enterocyte-like Caco-2/TC-7 cell line, lyophilized Lc-11; conditions: 0.03 M, compared to the freeze-dried form
Text: as §1, §2

[5] = test system: Bifidobacterium longum Bl-05; assay: Bacterial adhesion to human enterocyte-like Caco-2/TC-7 cell line, lyophilized Bl-05; conditions: 0.03 M, compared to the freeze-dried form
Text: as §1, §2

7-strain mixture (400B) = assay: Bacterial adhesion to human enterocyte-like Caco-2/TC-7 cell line, lyophilized 7-strain mixture; conditions: 0.03 M, compared to the freeze-dried form
Text: as §1, §2

For `Cl.NCCCC[C@H](N)C(=O)O` [L-Lysine hydrochloride, L-lysine hydrochloride], the “bacterial cell adhesion to Caco-2/TC-7 (FIGS. 2C and 2G), in words” value [1] was “significantly increased bacterial cell adhesion”, the “zeta potential of lyophilized HAC03 mixed with the ingredient (sign, FIG. 1)” value [2] was “negative zeta potentials” and the viability at 100000 µM ([3]; HAC03, 1 h, pH 2.5, read-out: Stomach Survivability (%)) was 85.2%. The viability at 100000 µM ([3]; HAC03, 2 h, pH 6, read-out: Duodenum Survivability (%)) was 48.4%, the “Stomach log CFU/mL” value ([3]; Table 1, 0.1 M ingredient, pH 2.5, 37° C., 1 hour) was 7.87 ± 0.07 log CFU/mL and the “Duodenum log CFU/mL” value ([3]; Table 1, 0.1 M ingredient, then bile salts (10% ox gall) and pH 6.0 synthetic duodenum juice, 2 hours) was 7.62 ± 0.09 log CFU/mL. For the same compound, the “intestinal survivability (acid resistance and bile resistance) in words” value ([3]; Table 1, compared to fresh bacteria / distilled water) was “increased in acid resistance and bile resistance”, the “bacterial cell adhesion to Caco-2/TC-7 (FIGS. 2A and 2E), in words” value [4] was “significantly increased bacterial cell adhesion” and the “bacterial cell adhesion to Caco-2/TC-7 (FIGS. 2B and 2F), in words” value [5] was “significantly increased bacterial cell adhesion”. For the same compound, the “bacterial cell adhesion to Caco-2/TC-7 (FIGS. 2D and 2H), in words” value (7-strain mixture (400B)) was “significantly increased bacterial cell adhesion”.
